The values that follow come from patent publication US20030022878A1, “TELOMERASE INHIBITOR” (priority 1997, published 2003).

One assay has as its system U937 cells. Put plainly: Effect of EGCG on cell growth in subculture. The format is cell-based. The note with it: U937 subculture lines, medium with 15 μM EGCG. How it is done: (§1) U937 cells and HT29 cells were each subcultured on a medium with and without EGCG to study the effect of addition of EGCG on cell growth. The medium used was the same as used in Example 4. Five subculture lines for U937 cells and nine subculture lines for HT29 cells were prepared. The first culture of each line was made by inoculating cells of each stock culture at a density of 5×10^5 cells per 10-cm dish. For each subculture, two lines were cultured on a medium without EGCG (control lines) and the rest of the lines were cultured on a medium supplemented with 15 μM EGCG. Cells were passaged, sampled and counted every four days. The incubation medium was freshly changed every day. […] PD is the number of cycles in which the cell population doubles during cell growth and is calculated by monitoring cell counts using a hemocytometer.

The subject of assay [1] is HT29 cells. Kind of assay: Effect of EGCG on cell growth in subculture. The note with it: HT29 subculture lines, medium with 15 μM EGCG. The format is cell-based. Here is the method:
as §1

The test system of the next assay is malignant melanoma cells. To be noted: oral administration; cited from earlier work.
A further assay has as its target T1, telomerase (Homo sapiens, UniProt O14746).
T1 construct: the resulting extract was centrifuged to obtain the supernatant as a cell extract for activity measurement; endogenous in cells
Kind of assay: Telomerase inhibiting activity in cell-free system (TRAP method). The format is biochemical. How it is done:
Telomerase inhibiting activity of EGCG, EGC, ECG, and EC (all products of Sigma) was measured according to the Telomeric Repeat Amplification Protocol (TRAP) method described by Kim et al. (Kim, N. W. et al., Science, 266, 2011-2015, 1994) as follows:
Cells were washed with ice-cold PBS (phosphate buffered saline) and suspended again in PBS to count the cells. After centrifuging this cell suspension, the resulting cell mass was suspended in a TRAP assay buffer (10 mM Tris-HCl, pH 7.5, 1 mM MgCl2, 1 mM EDTA, 0.5% CHAPS, 10% glycerine, 5 mM 2-mercaptoethanol, and 0.1 mM 4-(2-aminoethyl)-benzenesulfonyl fluoride hydrochlorine), then the suspension was quick-frozen with liquid nitrogen. After melting, the suspension was allowed to stand in an ice bath for 30 minutes for extraction, then the resulting extract was centrifuged to obtain the supernatant as a cell extract for activity measurement. […]
The PCR products obtained in the abovementioned procedure were resolved by polyacrylamide gel electrophoresis and the resulting DNA bands stained with SYBR Green (Takara Shuzo) were detected by irradiation with a UV transilluminator.
The detected bands were photographed. The intensity of each band was quantitatively analyzed using the NIH Image 1.60 software program. Telomerase activity was expressed as the intensity of a sample band relative to that of the band corresponding to the ITAS fragment (control).
Telomerase activity in reaction solutions of 8 different EGCG concentrations ranging from 0.1 to 20 μM was measured in the same manner as described in Example 1 except that a primer, PS, was used at two different concentrations. […]
Telomerase activity in reaction solutions containing powder sample 1 obtained in Production Example 1, powder sample 2 (a tea catechin extract: THEA-FLAN 90S, a trade name, a product of ITO EN, Ltd), and EGCG at different concentrations in the following ranges was measured in the same manner as described in Example 1. […]

The target of assay [2] is T2, intracellular telomerase activity, monoblastoid leukemia U937 cells (Homo sapiens, UniProt O14746).
T2 construct: endogenous in cells; host or cells: U937
T2 sequence (O14746 whole entry): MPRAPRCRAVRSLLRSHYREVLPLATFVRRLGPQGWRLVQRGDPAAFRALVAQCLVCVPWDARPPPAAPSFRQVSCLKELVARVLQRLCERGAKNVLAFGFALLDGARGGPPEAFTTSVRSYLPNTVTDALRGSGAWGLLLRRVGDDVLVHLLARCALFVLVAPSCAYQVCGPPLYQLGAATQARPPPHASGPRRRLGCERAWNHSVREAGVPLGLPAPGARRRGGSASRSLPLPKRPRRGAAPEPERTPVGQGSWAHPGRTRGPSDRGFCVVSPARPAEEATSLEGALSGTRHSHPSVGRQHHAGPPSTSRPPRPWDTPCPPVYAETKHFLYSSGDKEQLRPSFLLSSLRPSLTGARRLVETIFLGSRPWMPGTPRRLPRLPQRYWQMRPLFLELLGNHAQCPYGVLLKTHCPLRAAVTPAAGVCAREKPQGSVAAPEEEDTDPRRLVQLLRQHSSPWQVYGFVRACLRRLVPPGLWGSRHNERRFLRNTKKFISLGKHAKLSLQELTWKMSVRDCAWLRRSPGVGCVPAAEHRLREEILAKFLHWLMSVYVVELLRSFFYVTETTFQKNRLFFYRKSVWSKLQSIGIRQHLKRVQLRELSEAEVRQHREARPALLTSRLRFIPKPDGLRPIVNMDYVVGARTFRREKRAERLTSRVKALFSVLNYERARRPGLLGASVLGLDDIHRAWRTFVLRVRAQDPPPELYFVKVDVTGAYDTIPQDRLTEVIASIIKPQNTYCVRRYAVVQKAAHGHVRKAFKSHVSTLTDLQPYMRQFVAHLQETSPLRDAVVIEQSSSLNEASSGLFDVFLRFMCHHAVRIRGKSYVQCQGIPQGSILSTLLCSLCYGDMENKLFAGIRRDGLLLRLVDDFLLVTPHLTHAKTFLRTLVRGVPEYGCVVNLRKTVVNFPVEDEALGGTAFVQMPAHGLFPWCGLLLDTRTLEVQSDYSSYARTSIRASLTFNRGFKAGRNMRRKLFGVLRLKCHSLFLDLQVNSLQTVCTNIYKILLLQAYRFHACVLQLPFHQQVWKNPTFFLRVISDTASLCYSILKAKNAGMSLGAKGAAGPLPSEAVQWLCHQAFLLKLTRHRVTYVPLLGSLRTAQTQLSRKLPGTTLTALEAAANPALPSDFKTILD
Put plainly: Telomerase inhibiting activity in cells (Streptolysin O permeabilization, TRAP). The format is cell-based. To be noted: 15 μM EGCG for 2 hours. How it is done: (§2) The telomerase inhibiting activity of EGCG was assayed in monoblastoid leukemia U937 cells (American Type Culture Collection, ATCC) and colon adenocarcinoma HT29 cells.
(§3) An RPMI1640 medium (Nissui) supplemented with 10% fetal bovine serum (FBS) was used for U937 cells, and an RPMI1640 medium supplemented with 5% FBS and 5% fetal calf serum (FCS) was used for HT29 cells.
(§4) The cells were incubated in a 15 μM EGCG solution for 2 hours and washed in PBS. The washed cells were suspended in an RPMI1640 medium (without serum) at a concentration of 2×10^6 cells/ml, then Streptolysin O (Sigma, 5 U/ml), TS primer (10 μM), spermidine (1 mM), and Imipramine (50 μM) were added, and the admixture was incubated at room temperature for 10 minutes. Streptolysin O is a substance which increases the permeability of a substance through the cell membrane, and enables the TS primers and other substances to be incorporated into the cell. […]
(§5) The telomerase products thus obtained were resolved by polyacrylamide gel electrophoresis, after which DNA bands were stained with SYBR Green (Takara Shuzo) and detected by irradiation with a UV transilluminator. The intensity of each band was quantitatively analyzed using the NIH Image 1.60 software program and telomerase activity was expressed as the intensity of a sample band relative to that of the band corresponding to the ITAS fragment (control). […]

The target of assay [3] is T3, intracellular telomerase activity, colon adenocarcinoma HT29 cells (Homo sapiens, UniProt O14746).
T3 construct: endogenous in cells; host or cells: HT29
T3 sequence (O14746 whole entry): as above
The description is as above. The format is cell-based. To be noted: 15 μM EGCG for 2 hours. Here is the method:
as §2, §3, §4, §5

The test system of assay [4] is experimentally-induced tumors. The note with it: nude mice with experimentally-induced tumors; cited from earlier work.
Another assay concerns the target T4, telomerase, HT29 cells (Homo sapiens, UniProt O14746).
T4 construct: endogenous in cells; host or cells: HT29
Put plainly: Telomerase activity in extract of EGCG-treated cells (mechanism). The format is cell-based. To be noted: 15 μM EGCG for 2 hours, washed, extracted. Here is the method:
(§6) The cells were treated with 15 μM EGCG for 2 hours and washed with ice-cold PBS. The cell mass obtained by centrifugation was suspended in a TRAP assay buffer and the resulting suspension was quick-frozen with liquid nitrogen. After melting, the suspension was allowed to stand in an ice bath for 30 minutes, then the resulting extract was centrifuged to obtain the supernatant as a cell extract. A test compound, TS primer (50 ng), 50 μM dNTPs, and T4g32 protein (Behringer-Manheim) were added to a specified volume of the cell extract (corresponding to 200 to 1000 cells), and the admixture was incubated at 20° C. for 30 minutes. After reaction, CX primer (100 ng) was added to the reaction solution, then PCR was performed in the presence of Gene Taq DNA polymerase (2 U) and ITAS (10^−18 g), i.e., (94° C., 40 seconds→50° C., 40 seconds→72° C., 60 seconds)×30 cycles→72° C., 2 minutes, to obtain PCR products. The PCR products thus obtained were resolved by polyacrylamide gel electrophoresis and the resulting DNA bands stained with SYBR Green (Takara Shuzo) were detected by irradiation with a UV transilluminator. The intensity of each band was quantitatively analyzed using the NIH Image 1.60 software program. Telomerase activity was expressed as the intensity of a sample band relative to that of the band corresponding to the ITAS fragment. […]

The next assay has as its target T5, telomerase, U937 cells (Homo sapiens, UniProt O14746).
T5 construct: endogenous in cells; host or cells: U937
The description is as above. It counts as cell-based. To be noted: 15 μM EGCG for 2 hours, washed, extracted. Here is the method:
as §6

For assay [5], the system named is HT29 cells. Kind of assay: TRF (telomere) length by Southern blotting. It counts as cell-based. The note with it: HT29 cells in crisis, 15 μM EGCG. How it is done: HT 29 cells from PD57 to PD60 in cell crisis were pooled and the genomic DNA was prepared by a salting-out/ethanol precipitation method (Stratagene). Further, integrity of the isolated genomic DNA was confirmed by gel electrophoresis (ethidium bromide staining).
The isolated genomic DNA (10 μg) was digested with HinfI and RsaI and the resulting digests were subjected to Southern blotting by the ordinary method, after which DNA fragments were detected using a TeloQuant assay kit (PharmMingen).
Accordingly, if a genomic DNA is digested with the abovementioned restriction enzymes, only the telomere region would remain undigested. This DNA fragment is called the Terminal Restriction Fragment (TRF) which can be detected by Southern blotting to analyze telomere lengths. TRFs of EGCG-treated or untreated HT29 cells obtained as mentioned above were detected using a TeloQuant assay kit. […] It was observed that TRFs in the cells which entered crisis due to the EGCG treatment (●) were shortened by about 1.1 kb as compared to those in the untreated cells (◯). Further, it was confirmed that successive EGCG treatment of HT29 cells caused telomere diminishment.

Values joined by “and” are separate entries in the source; they are usually repeats but may differ in a detail not shown here. Identical values can stand only once.

T1 sequence (O14746 whole entry): as above
T4 sequence (O14746 whole entry): as above
T5 sequence (O14746 whole entry): as above

Broadly, the Ki is a dissociation constant, usually derived from enzyme kinetics or from competition with a known ligand. Lower therefore signals higher affinity. (−) epigallocatechin gallate [EGCG]: the “day at which cells entered cell crisis” value was 53 days and 44 days and 29 days in the assay with U937 cells; 75 days and 57 days with HT29 cells [1]. Besides, the “metastasis of malignant melanoma cells” value with malignant melanoma cells is given as “suppressed”. Also, at telomerase (Dixon plot, EGCG 0.1 to 20 μM, primer at two concentrations), the Ki was roughly 100 nM. At telomerase (TRAP, cell extract), the “telomerase inhibiting activity compared among catechins (FIG. 1)” value was “highest inhibiting activity”. Besides, the “Telomerase inhibition, IC50” value on telomerase (concentration suppressing DNA amplification of control by 50%, samples tested in μg/ml ranges) worked out at 0.25. Besides, the intracellular telomerase activity result in assay [2] and in assay [3] was “markedly inhibited” throughout. Moreover, the “cancer cell growth in nude mice” value in assay [4] is reported as “effectively suppressed”. Besides, the “telomerase activity tested in vitro in extract after treatment of cells” value at telomerase, HT29 cells is recorded as “no effect”; on telomerase, U937 cells, “no effect”. In addition, the “shortening of TRFs compared to untreated cells” value with HT29 cells [5] was “about 1.1 kb”.
